Blank lines part the entries; values can stand above or below the compound they belong to. The source made the active and inactive calls. The rule behind the calls is not given here.
Key:
EJ [1] = test: Antiproliferative activity against human EJ cells assessed as inhibition of colony formation at 8.34 uM measured by colony formation assay; format: functional, cell-based
[2] = Fluorescence response in PBS solution at pH 3 to 9 assessed as higher sensitivity to fluorescence intensity at 2 uM; format: physicochemical; conditions: buffer, pH 3, 2 µM
EJ [3] = test: Antiproliferative activity against human EJ cells after 24 hrs by CCK-8 assay; format: functional, cell-based
EJ [4] = test: Antiproliferative activity against human EJ cells at pH 7.5 assessed as LDH levels at 22.35 uM after 24 hrs relative to control; format: functional
EJ [5] = test: Antitumor activity against human EJ cells xenografted in male nude mouse assessed as reduction in tumor weight at 22.35 uM and measured at pH 7.5; format: functional, cell-based
EJ [6] = test: Induction of apoptosis in human EJ cells at 22.35 uM assessed as increase in apoptosis rate measured by Annexin V-PE/7-AAD-based flow cytometry assay; format: functional, cell-based
EJ [7] = test: Antitumor activity against human EJ cells xenografted in male nude mouse assessed as decrease in Ki-67 expression at 22.35 uM and measured at pH 7.5 by immunohistochemistry analysis; format: functional, cell-based
EJ [8] = test: Antitumor activity against human EJ cells xenografted in male nude mouse assessed as reduction in tumor weight at 22.35 uM and measured at pH 5.5; format: functional, cell-based
EJ [9] = test: Antitumor activity against human EJ cells xenografted in male nude mouse assessed as increase in cleaved caspase-9 expression at 22.35 uM and measured by Western blotting analysis; format: functional, cell-based
EJ [10] = test: Antiproliferative activity against human EJ cells at pH 7.5 assessed as cell viability at 22.35 uM after 24 hrs by CCK-8 assay relative to control; format: functional; conditions: read-out: Activity
EJ [11] = test: Antitumor activity against human EJ cells xenografted in male nude mouse assessed as decrease in Ki-67 expression at 22.35 uM and measured at pH 8.5 by immunohistochemistry analysis; format: functional, cell-based
EJ [12] = test: Antiproliferative activity against human EJ cells at pH 6.5 assessed as LDH levels at 22.35 uM after 24 hrs relative to control; format: functional
EJ [13] = test: Induction of apoptosis in human EJ cells at 22.35 uM assessed as increase in cleaved caspase-3 expression measured by Western blotting assay; format: functional, cell-based
EJ [14] = test: Antitumor activity against human EJ cells xenografted in male nude mouse assessed as reduction in tumor volume at 22.35 uM and measured at pH 8.5; format: functional, cell-based
EJ [15] = test: Antitumor activity against human EJ cells xenografted in male nude mouse assessed as reduction in tumor volume at 22.35 uM and measured at pH 6.5; format: functional, cell-based
EJ [16] = test: Antitumor activity against human EJ cells xenografted in male nude mouse assessed as decrease in PCNA expression at 22.35 uM and measured at pH 5.5 by immunohistochemistry analysis; format: functional, cell-based
EJ [17] = test: Induction of apoptosis in human EJ cells at 22.35 uM assessed as increase in cleaved caspase-9 expression measured by Western blotting assay; format: functional, cell-based
EJ [18] = test: Antitumor activity against human EJ cells xenografted in male nude mouse assessed as decrease in PCNA expression at 22.35 uM and measured at pH 8.5 by immunohistochemistry analysis; format: functional, cell-based
EJ [19] = test: Antitumor activity against human EJ cells xenografted in male nude mouse assessed as increase in cleaved caspase-3 expression at 22.35 uM and measured by Western blotting analysis; format: functional, cell-based
EJ [20] = test: Antitumor activity against human EJ cells xenografted in male nude mouse assessed as reduction in tumor weight at 22.35 uM and measured at pH 6.5; format: functional, cell-based
EJ [21] = test: Antitumor activity against human EJ cells xenografted in male nude mouse assessed as decrease in Ki-67 expression at 22.35 uM and measured at pH 5.5 by immunohistochemistry analysis; format: functional, cell-based
EJ [22] = test: Antiproliferative activity against human EJ cells assessed as inhibition of colony formation at 22.35 uM measured by colony formation assay; format: functional, cell-based
[23] = Antiproliferative activity against human SV-HUC-1 cells after 24 hrs by CCK-8 assay; format: functional, cell-based; conditions: SV-HUC1, 24 h
EJ [24] = test: Antiproliferative activity against human EJ cells at pH 6.5 assessed as cell viability at 22.35 uM after 24 hrs by CCK-8 assay relative to control; format: functional; conditions: read-out: Activity
EJ [25] = test: Antitumor activity against human EJ cells xenografted in male nude mouse assessed as reduction in tumor volume at 22.35 uM and measured at pH 7.5; format: functional, cell-based
EJ [26] = test: Antitumor activity against human EJ cells xenografted in male nude mouse assessed as decrease in PCNA expression at 22.35 uM and measured at pH 6.5 by immunohistochemistry analysis; format: functional, cell-based
EJ [27] = test: Antitumor activity against human EJ cells xenografted in male nude mouse assessed as decrease in PCNA expression at 22.35 uM and measured at pH 7.5 by immunohistochemistry analysis; format: functional, cell-based
EJ [28] = test: Antitumor activity against human EJ cells xenografted in male nude mouse assessed as reduction in tumor volume at 22.35 uM and measured at pH 5.5; format: functional, cell-based
EJ [29] = test: Antitumor activity against human EJ cells xenografted in male nude mouse assessed as increase in Bax expression at 22.35 uM and measured by Western blotting analysis; format: functional, cell-based
EJ [30] = test: Antitumor activity against human EJ cells xenografted in male nude mouse assessed as decrease in Ki-67 expression at 22.35 uM and measured at pH 6.5 by immunohistochemistry analysis; format: functional, cell-based
EJ [31] = test: Induction of apoptosis in human EJ cells at 22.35 uM assessed as increase in Bax expression measured by Western blotting assay; format: functional, cell-based
EJ [32] = test: Antitumor activity against human EJ cells xenografted in male nude mouse assessed as reduction in tumor weight at 22.35 uM and measured at pH 8.5; format: functional, cell-based

Structure (SMILES): CCNc1cc2c(cc1C)C1(c3cc(C)c(NCC)cc3O2)c2ccccc2C(=O)N1CC1CCCO1 (configuration not stated)
Activity [2]: Active

Structure (SMILES): CCNc1cc2c(cc1C)C1(c3cc(C)c(NCC)cc3O2)c2ccccc2C(=O)N1CC1CCOCC1
Activity [2]: Active

Structure (SMILES): CCNc1cc2c(cc1C)C1(c3cc(C)c(NCC)cc3O2)c2ccccc2C(=O)N1Cc1ccccn1
Activity (EJ [4]): 26.4%
Activity (EJ [5]): Active
Activity (EJ [6]): Active
Activity [2]: Active
Activity (EJ [7]): Active
Activity (EJ [8]): Active
Activity (EJ [9]): Active
viability at 22.35 µM (EJ [10]): 83.2%
Activity (EJ [11]): Active
Activity (EJ [12]): 42.8%
Activity (EJ [13]): Active
Activity (EJ [14]): Active
Activity (EJ [15]): Active
Activity (EJ [16]): Active
Activity (EJ [17]): Active
Activity (EJ [18]): Active
Activity (EJ [19]): Active
IC50 (EJ [3]): 22.4 µM
Activity (EJ [20]): Active
Activity (EJ [21]): Active
Activity (EJ [22]): Active
IC50 [23]: 25.6 µM
viability at 22.35 µM (EJ [24]): 68.4%
Activity (EJ [25]): Active
Activity (EJ [26]): Active
Activity (EJ [27]): Active
Activity (EJ [28]): Active
Activity (EJ [29]): Active
Activity (EJ [30]): Active
Activity (EJ [31]): Active
Activity (EJ [32]): Active

The next lines start with results.

Activity [2]: Active
Structure (SMILES): CCNc1cc2c(cc1C)C1(c3cc(C)c(NCC)cc3O2)c2ccccc2C(=O)N1c1ccn([C@@H]2O[C@H](CO)[C@@H](O)C2(F)F)c(=O)n1
Activity (EJ [1]): Active
IC50 (EJ [3]): 8.34 µM

Activity [2]: Active
Structure (SMILES): CCNc1cc2c(cc1C)C1(c3cc(C)c(NCC)cc3O2)c2ccccc2C(=O)N1C1CCC1

— ChEMBL document CHEMBL5154838, “A pH-Dependent rhodamine fluorophore with antiproliferative activity of bladder cancer in Vitro/Vivo and apoptosis mechanism” (Eur J Med Chem, 2022)
